According to US4138485A, “Phenylalanine derivatives” (Kyowa Hakko Kogyo Kabushiki Kaisha, priority 1976, dated 1979):

Assays:
[1] = Acute toxicity in rats; conditions: in vivo; rat, oral administration, after one week; read-out: Acute Toxicity (LD50), C
Method: (§1) (1) Acute toxicity and tonic convulsion in hind paw:
(§2) The acute toxicity and tonic convulsion occured by stimulus by hand touch were determined in the following manner to give the results shown in Table 2.
(b) Acute toxicity in rats:
28 Groups, each consisting of 5 rats (male Wistar strain, weight -- 200 g), were used for the test and control groups. The compounds shown in Table 2 were orally administered to the rats. After one week, the survival ratio was measured.

[2] = test system: hyperlipemia induced by Triton; test: Cholesterol-lowering activity on hyperlipemia induced by Triton in mice; assay type: in vivo, mice (male dd-strain); conditions: Mus musculus, po, 43 h, read-out: Ratio of the reduction of cholesterol
Method: (2) Cholesterol-Lowering activity on hyperlipemia induced by Triton in mice:
38 Groups, each consisting of 9 mice (male dd-strain, weight -- 19 to 21 g), were used for the test and control groups. […] Immediately after the administration and also after 20 hours from the administration of Triton, the mice were orally administered with 100 mg/kg of the compound shown in Table 3. 43 hours after the administration of Triton, the blood samples were collected by decapitation and then the corpuscle was removed by centrifugation. Cholesterol in the serum was determined by Zurkowski's method modified by Shibata (color of the test solution was developed by using sulfoalicyclic acid, acetic acid and sulfuric acid and the optical density of the solution was determined at 620 mμ.

[3] = test system: Cholesterol in the serum; test: Cholesterol-lowering activity on normal rats of Wistar strain (serum cholesterol, liver weight); assay type: in vivo, rats (male Wistar strain); conditions: 0.3% in diet; for B - Ratio of decrease of liver weight: continuous administration for 4 days; for C - Ratio of decrease of cholesterol / D - Ratio of increase of liver weight: continuous administration for 14 days
Method: (3) Cholesteral-lowering activity on normal rats of Wistar strain:
(i) 22 Groups, each consisting of 5 rats (male Wistar strain, weight -- 150 to 180 g) were used for the test and control groups. After this, the blood samples were collected by decapitation and then the corpuscle was removed by centrifugation. Cholesterol in the serum was determined by Zurkowski's method modified by Shibata and also the liver was excised and weighed. The results are shown in Table 4 wherein the ratio of 100% denotes the amount of chloresterol and the weight of the liver of normal rats fed with powdery diet without the addition of the compound.

[4] = Acute toxicity in mice; conditions: in vivo; mouse, oral administration, after one week; read-out: Acute Toxicity (LD50), A
Method: as §1, §2
(a) Acute toxicity in mice:
38 Groups, each consisting of 5 mice (male dd-strain, weight -- 18 to 24 g), were used for the test and control groups. The compounds shown in Table 2 were administered orally or intraperitoneally to the mice. After one week, the survival ratio was measured.

[5] = test system: Mouse; test: Tonic convulsion of hind paw of mice (stimulus by hand touch); assay type: in vivo, mice (male dd-strain); conditions: oral, 30 to 360 minutes
Method: as §1, §2
(c) Tonic convulsion of hind paw of mice:
38 Groups, each consisting of 5 mice (male dd-strain, weight -- 18 to 24 g), were used for the test and control groups. The compounds shown in Table 2 were orally administered to the mice. At 30, 60, 120, 180 and 360 minutes after the administration, stimulus by hand touch was given to the mice and the tonic convulsion was observed.

With `O=C(NC(Cc1ccccc1)C(=O)O)SCc1ccccc1` (racemic) [Compound 17, N-benzylthiocarbonyl-D,L-phenylalanine] the LD50 at 168 h [1] was greater than 100 mg/kg, the inhibition in vivo at 100 mg/kg [2] was 95% and the “B - Ratio of decrease of liver weight” value [3] was 35.2%. The LD50 at 168 h [4] was greater than 1000 mg/kg and the Tonic convulsion ([5]; D = 1000 mg/kg) was “+”.
In the case of `COC(=O)[C@H](Cc1ccccc1)NC(=O)SCc1ccc(F)cc1` [Compound 12, N-(4-fluorobenzylthiocarbonyl)-L-phenylalanine methylester], the LD50 at 168 h [1] is reported as greater than 100 mg/kg, the inhibition in vivo at 100 mg/kg [2] is reported as 76% and the “B - Ratio of decrease of liver weight” value [3] is reported as 45.9%. For the same molecule, the LD50 at 168 h [4] was greater than 1000 mg/kg and the Tonic convulsion ([5]; D = 1000 mg/kg) was “+”.
For `O=C(N[C@@H](Cc1ccccc1)C(=O)O)SCc1ccccc1` [Compound 16, N-benzylthiocarbonyl-L-phenylalanine], the LD50 at 168 h [1] was greater than 200 mg/kg, the inhibition in vivo at 100 mg/kg [2] was 86% and the “C - Ratio of decrease of cholesterol” value [3] was 9.2%. The “D - Ratio of increase of liver weight” value [3] was 79%, the LD50 at 168 h [4] was greater than 1000 mg/kg and the Tonic convulsion ([5]; D = 500 mg/kg) was “+”.
In the case of `COC(=O)[C@H](Cc1ccccc1)NC(=O)SCc1ccccc1` [Compound 18, N-benzylthiocarbonyl-L-phenylalanine methylester], the LD50 at 168 h [1] is reported as greater than 200 mg/kg, the inhibition in vivo at 100 mg/kg [2] is reported as 80% and the “B - Ratio of decrease of liver weight” value [3] is reported as 39%. For the same molecule, the “C - Ratio of decrease of cholesterol” value [3] was 3.0%, the “D - Ratio of increase of liver weight” value [3] was 92% and the LD50 at 168 h [4] was greater than 1000 mg/kg. For the same molecule, the Tonic convulsion ([5]; D = 500 mg/kg) was “+”.
For `Cc1ccccc1CSC(=O)N[C@@H](Cc1ccccc1)C(=O)O` [Compound 20, N-(2-methylbenzylthiocarbonyl)-L-phenylalanine], the inhibition in vivo at 100 mg/kg [2] was 47%, the LD50 at 168 h [4] was greater than 1000 mg/kg and the Tonic convulsion ([5]; D = 1000 mg/kg) was “+”.
With `COC(=O)[C@H](Cc1ccccc1)NC(=O)SCc1ccccc1C` [Compound 21, N-(2-methylbenzylthiocarbonyl)-L-phenylalanine methylester] the inhibition in vivo at 100 mg/kg [2] was 43%, the LD50 at 168 h [4] was greater than 1000 mg/kg and the Tonic convulsion ([5]; D = 1000 mg/kg) was “+”.
For `Cc1cccc(CSC(=O)N[C@@H](Cc2ccccc2)C(=O)O)c1` [Compound 22, N-(3-methylbenzylthiocarbonyl)-L-phenylalanine], the inhibition in vivo at 100 mg/kg [2] was 46%, the LD50 at 168 h [4] was greater than 1000 mg/kg and the Tonic convulsion ([5]; D = 1000 mg/kg) was “+”.
